Where a SMILES comes first, the peptide text is derived from it.

Results on 2 compounds are retold here after patent US9079977B2, “Anti-trypanosomal peptides and uses thereof” (priority 2009, dated 2015).

The subject of data set [1] is LNCaP prostate cancer cells. The data set can be described thus: Mammalian cell viability assay (trypan blue exclusion), Example 2. In kind it is cell-based, human. The note with it: 80-160 μM, 2 h at 37° C. On the procedure: (§1) Mammalian cell viability and hemolysis assays. Human embryonic kidney cells (HEK) (ATCC CRL-1573) and LNCaP prostate cancer cells (ATCC CRL-1740) were utilized for cell viability assays. Human embryonic kidney cells were cultured in Dulbecco's Modified Eagles Medium, high glucose (Thermo Scientific, cat #SH30243.01) with 10% fetal bovine serum at 37° C. and 5% CO2. Prostate cancer cells were cultured in RPM-1640 medium (Invitrogen, cat #A10491-01) with 10% fetal bovine serum at 37° C. and 5% CO2. In both cases, assays were performed by aliquoting cells into 96 well plates at approximately 60% confluency and allowing the cells to adhere for two hours. Cells were then incubated with serial dilutions of SHP-1, or the relevant control, in the corresponding media for two hours at 37° C. Cell viability was determined by the ability of live cells to exclude trypan blue. The cells were incubated with 0.1% trypan blue for 10 minutes and examined microscopically for cytoplasmic staining. The potential for SHP-1 to induce hemolysis was assayed by monitoring hemoglobin (Hb) release from freshly collected human erythrocytes that had been washed and incubated with SHP-1 in PBS. The Hb concentration of the supernatant was determined by the absorbance at 412 nm and compared to 100% hemolysis acquired by hypotonic lysis. […]

The conditions of data set [2]: not told.
Protocol: Calcein release assays. […] Briefly, liposomes were diluted 1:1000 into 50 mM Tris, pH 7.0 and calcein fluorescence was monitored at 513 nm when excited at 484 nm. The percent calcein release was calculated relative to the 100% fluorescence intensity, achieved by the addition of 0.01% Triton X-100.
Data set [3] has as its system Human embryonic kidney cells (HEK). The data set can be described thus: Mammalian cell viability assay (trypan blue exclusion), Example 2. The note with it: 80-160 μM, 2 h at 37° C. Format: cell-based. On the procedure:
as §1

The subject of data set [4] is BSF T. b. brucei. Put plainly: Trypanosome killing assay, Example 4. The settings on record: two hour killing assay, 37° C. Format: cell-based, Trypanosoma brucei brucei. On the procedure:
Trypanosome Killing Assays. Light microscopy based trypanosome killing assays were performed as previously described in detail (Harrington et al., 2010, J Biol Chem; 285(37):28659-66; Widener et al., 2007, PLoS Pathog; 3(9):1250-61; Shiflett et al., 2007, J Eukaryot Microbiol; 54(1):18-21; and Hajduk et al., 1989, J Biol Chem; 264(9):5210-7). Metacyclic T. b. brucei TREU 667 were obtained from dissection of the salivary glands of infected tsetse flies. Newly hatched Glossina morsitans morsitans (24-48 hours post eclosion) were fed defibrinated horse blood containing 2×10^6 ml^−1 trypanosomes and maintained at 25° C. in 75% relative humidity and fed maintenance blood meals three times per week. Following day 20-30, flies were harvested and salivary glands were dissected out and washed in HMI 9 media containing 10% fetal bovine serum. Metacyclic cells were collected via centrifugation and maintained in HMI 9 media with 10% fetal bovine serum at 37° C. in 5% CO2 until use. Killing assays were conducted with 1×10^4 cells/ml in HMI 9 media containing 10% fetal bovine serum. Trypanosoma vivax and T. congolense were grown from stabilites in donor ICR mouse (Harlan, United Kingdom). Parasites were harvested from mice by terminal exsanguination and passage of infected blood through a small anion exchange column. Cells were maintained in HMI 9 with 20% goat serum at 37° C. in 5% CO2 until use. Killing assays were performed with 1×10^7 cells/ml in HMI 9 media with either 20% goat serum, in the case of T. vivax and T congolense, and 10% fetal bovine serum, for T. b. brucei. Cells were incubated at 37° C. for 2 hours and dead parasites were scored visually. All were conducted in at least duplicate, and data points are the averages with standard deviations.

Data set [5] relates to BSF T. b. brucei. The data set can be described thus: Trypanosome motility by video microscopy, Example 4. Format: cell-based, Trypanosoma brucei brucei. The settings on record: 40 μM peptide, 37° C. On the procedure: Trypanosome motility. All images and videos were acquired with an Axio Observer Z1 equipped with an AxioCam MRm controlled by AxioVision 4.6 software. Videos were acquired with live cells at a density of 1×10^7 cells/ml in HMI 9 media with 10% fetal bovine serum, incubated with 40 µM SHP-1 at 37° C. Videos were recorded at magnification 63× with 50-ms acquisition times. The motility of BSF trypanosomes was scored visually from video playback of trypanosomes scanned throughout 10 μl aliquots. Data is shown as the average of triplicate trials with standard deviations.

The subject of data set [6] is plasma membrane of live BSF T. b. brucei. Put plainly: Anisotropy assays with DPH and TMA-DPH, Example 4. Format: cell-based, Trypanosoma brucei brucei. The note with it: 37° C. The procedure:
Anisotropy Assays. The plasma membrane rigidity of live T. b. brucei was determined by measuring the fluorescence depolarization of diphenyl-1,3,5-hexatriene p-toluenesulfonate (DPH) or 1-(4-trimethylammoniumphenyl)-6-diphenyl-1,3,5-hexatriene p-toluenesulfonate (TMA-DPH; Invitrogen T204). Cells were washed 3 times with and resuspended in PBS at a density of 3×10^6 cells/ml. The anisotropic probes were added to a final concentration of […] and allowed to intercalate into the cell membrane for one hour in the dark. Anisotropic values were acquired via the software function of a PerkinElmer Life Sciences LS55 spectrofluorometer. Samples were excited at 358 nm, and emission was read at 430 nm, both with 10-nm slit widths. Temperature was maintained at 37° C. by means of the PerkinElmer LS55 Biokinetics accessory. Data were corrected for light scattering with an unlabeled sample of cells, and anisotropy was calculated according to the equation r=(IVV−GIVH)/(IVV+2GIVH), where r is the anisotropy value, IVV is the emission intensity acquired with the excitation- and emission-polarizing filters set vertically, G is the instrument correction factor, and IVH is the emission intensity acquired with the excitation-polarizing filter set vertically and the emission-polarizing filter set horizontally. All assays were conducted at 37° C. […]

For data set [7], the system named is BSF T. b. brucei. Put plainly: Flow cytometry binding of FITC-labeled SHP. In kind it is cell-based, Trypanosoma brucei brucei. The settings on record: 8 μM FITC-labeled peptide. The procedure:
Flow Cytometry. Peptide binding to BSF T. b. brucei was monitored by flow cytometry. Binding assays were performed with 3×10^6 cells/ml in HMI 9 plus 10% fetal bovine serum at 25° C. FITC-labeled SHP-1 or SHP-3 was added to a final concentration of 8 μM and 50,000 cells were immediately counted on a CyAn ADP flow cytometer (Dako). Data were analyzed with FlowJo software (TreeStar Inc.).

In the case of `CC[C@H](C)[C@H](NC(=O)[C@@H](NC(=O)[C@H](C)NC(=O)CNC(=O)[C@H](CC(C)C)NC(=O)[C@H](CC(=O)O)NC(=O)[C@@H](N)CO)C(C)C)C(=O)N[C@@H](CO)C(=O)N[C@@H](CC(C)C)C(=O)N[C@@H](CC(C)C)C(=O)N[C@@H](CC(C)C)C(=O)N[C@@H](Cc1c[nH]c2ccccc12)C(=O)NCC(=O)N[C@@H](CCCNC(=N)N)C(=O)N[C@@H](CCC(N)=O)C(=O)N[C@@H](CC(C)C)C(=O)N[C@@H](Cc1ccccc1)C(=O)N[C@@H](C)C(=O)O` [SHP-1, SDLGAVISLLLWGRQLFA] (H-SDLGAVISLLLWGRQLFA-OH; N-terminus and C-terminus assumed), the “cell death of LNCaP cells (morphology, trypan blue exclusion)” value in data set [1] is “did not result in cell death”. In data set [2], the “permeabilization of homogenous symmetric saturated PC liposomes” value was “not permeabilized” and the “permeabilization of symmetric 15:0 PC or DPPC liposomes above Tm” value was “resulted in sensitivity to permeabilization”. Further, in data set [3], the “cell death of HEK cells (morphology, trypan blue exclusion)” value is “did not result in cell death”.

As to “FHQIWAALLYFYGIILNSIY (amino acid sequence of small hydrophobic peptide -3 (SHP-3)) [Small hydrophobic peptide 3, derived from an apolipoprotein]”, the “killing of BSF T. brucei (trypanocidal activity)” value with BSF T. b. brucei [4] is given as “no killing was seen”. Further, in the data set with BSF T. b. brucei [5], the “motility phenotype (hyperactivation, constriction)” value is “does cause initial hyperactivation of BSF T. b. brucei, however subsequent constriction of motility does not occur”. Further, the “rigidity of the interfacial region of the plasma membrane (TMA-DPH)” value in data set [6] was “increased the rigidity of the interfacial region of the plasma membrane”. Besides, the “binding to BSF T. brucei” value in the data set with BSF T. b. brucei [7] was “binding to BSF T. brucei”.
